{"source": "the supplement of paper PMC10307832", "experiment_in_all_cases": "relative viability (nuclei count vs DMSO), 5 days (fraction); higher = more cells survive", "key": {"[1]": {"system": "LCLC-97TM1", "in_short": "(§1)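 Relative viability is defined as nuclei in treated wells over nuclei in vehicle wells. Duplicate plates were run and medians reported. Lung cancer cell lines in 1536-well plates were dosed by pin tool one day after seeding, with one drug or with a fixed anchor-drug dose plus five library-drug doses (not always all listed) in √10 steps, and nuclei were counted after 5 days.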"}, "[2]": {"system": "NCI-H1355", "in_short": "as §1"}, "[3]": {"system": "NCI-H1648", "in_short": "as §1"}, "[4]": {"system": "NCI-H1993", "in_short": "as §1"}, "[5]": {"system": "NCI-H23", "in_short": "as §1"}, "[6]": {"system": "NCI-H322M", "in_short": "as §1"}, "[7]": {"system": "NCI-H596", "in_short": "as §1"}, "[8]": {"system": "UMC-11", "in_short": "as §1"}, "[9]": {"system": "A549", "in_short": "as §1"}}, "data": [{"smiles": "CCN(CC)CCCCNc1ncc2cc(-c3cc(OC)cc(OC)c3)c(NC(=O)NC(C)(C)C)nc2n1", "note": "+ Nc1nc2[nH]cc(CCc3ccc(C(=O)N[C@@H](CCC(=O)O)C(=O)O)cc3)c2c(=O)[nH]1 [Pemetrexed] (partner 0.2 µM)", "values": [{"measurement": "relative viability", "setting": "[1]; first compound 0.01 µM", "value": 0.174}, {"measurement": "relative viability", "setting": "[1]; first compound 0.03162 µM", "value": 0.185}, {"measurement": "relative viability", "setting": "[1]; first compound 0.1 µM", "value": 0.174}, {"measurement": "relative viability", "setting": "[1]; first compound 0.3162 µM", "value": 0.159}, {"measurement": "relative viability", "setting": "[1]; first compound 1 µM", "value": 0.189}, {"measurement": "relative viability", "setting": "[2]; first compound 0.01 µM", "value": 1.06}, {"measurement": "relative viability", "setting": "[2]; first compound 0.03162 µM", "value": 1.09}, {"measurement": "relative viability", "setting": "[2]; first compound 0.1 µM", "value": 1.17}, {"measurement": "relative viability", "setting": "[2]; first compound 0.3162 µM", "value": 1.11}, {"measurement": "relative viability", "setting": "[2]; first compound 1 µM", "value": 1.02}, {"measurement": "relative viability", "setting": "[3]; first compound 0.01 µM", "value": 0.7}, {"measurement": "relative viability", "setting": "[3]; first compound 0.03162 µM", "value": 0.815}, {"measurement": "relative viability", "setting": "[3]; first compound 0.1 µM", "value": 0.722}, {"measurement": "relative viability", "setting": "[3]; first compound 0.3162 µM", "value": 0.491}, {"measurement": "relative viability", "setting": "[3]; first compound 1 µM", "value": 0.487}, {"measurement": "relative viability", "setting": "[4]; first compound 0.01 µM", "value": 0.57}, {"measurement": "relative viability", "setting": "[4]; first compound 0.03162 µM", "value": 0.583}, {"measurement": "relative viability", "setting": "[4]; first compound 0.1 µM", "value": 0.652}, {"measurement": "relative viability", "setting": "[4]; first compound 0.3162 µM", "value": 0.689}, {"measurement": "relative viability", "setting": "[4]; first compound 1 µM", "value": 0.707}, {"measurement": "relative viability", "setting": "[5]; first compound 0.01 µM", "value": 0.666}, {"measurement": "relative viability", "setting": "[5]; first compound 0.03162 µM", "value": 0.566}, {"measurement": "relative viability", "setting": "[5]; first compound 0.1 µM", "value": 0.854}, {"measurement": "relative viability", "setting": "[5]; first compound 0.3162 µM", "value": 0.778}, {"measurement": "relative viability", "setting": "[5]; first compound 1 µM", "value": 0.646}, {"measurement": "relative viability", "setting": "[6]; first compound 0.01 µM", "value": 0.612}, {"measurement": "relative viability", "setting": "[6]; first compound 0.03162 µM", "value": 0.591}, {"measurement": "relative viability", "setting": "[6]; first compound 0.1 µM", "value": 0.735}, {"measurement": "relative viability", "setting": "[6]; first compound 0.3162 µM", "value": 0.642}, {"measurement": "relative viability", "setting": "[6]; first compound 1 µM", "value": 0.567}, {"measurement": "relative viability", "setting": "[7]; first compound 0.01 µM", "value": 0.453}, {"measurement": "relative viability", "setting": "[7]; first compound 0.03162 µM", "value": 0.496}, {"measurement": "relative viability", "setting": "[7]; first compound 0.1 µM", "value": 0.488}, {"measurement": "relative viability", "setting": "[7]; first compound 0.3162 µM", "value": 0.584}, {"measurement": "relative viability", "setting": "[7]; first compound 1 µM", "value": 0.443}, {"measurement": "relative viability", "setting": "[8]; first compound 0.01 µM", "value": 0.862}, {"measurement": "relative viability", "setting": "[8]; first compound 0.03162 µM", "value": 0.767}, {"measurement": "relative viability", "setting": "[8]; first compound 0.1 µM", "value": 0.969}, {"measurement": "relative viability", "setting": "[8]; first compound 0.3162 µM", "value": 0.986}, {"measurement": "relative viability", "setting": "[8]; first compound 1 µM", "value": 0.696}]}, {"smiles": "O=c1cc(-c2cccc3c2Sc2ccccc2S3)oc(N2CCOCC2)c1", "note": "+ Nc1ncn([C@H]2C[C@H](O)[C@@H](CO)O2)c(=O)n1 [Decitabine] (partner 2 µM)", "values": [{"measurement": "relative viability", "setting": "[9]; first compound 0.08 µM", "value": 0.259}, {"measurement": "relative viability", "setting": "[9]; first compound 0.253 µM", "value": 0.325}, {"measurement": "relative viability", "setting": "[9]; first compound 0.8 µM", "value": 0.263}, {"measurement": "relative viability", "setting": "[9]; first compound 2.53 µM", "value": 0.106}, {"measurement": "relative viability", "setting": "[9]; first compound 8 µM", "value": 0.334}, {"measurement": "relative viability", "setting": "[1]; first compound 0.08 µM", "value": 0.195}, {"measurement": "relative viability", "setting": "[1]; first compound 0.253 µM", "value": 0.217}, {"measurement": "relative viability", "setting": "[1]; first compound 0.8 µM", "value": 0.256}, {"measurement": "relative viability", "setting": "[1]; first compound 2.53 µM", "value": 0.186}, {"measurement": "relative viability", "setting": "[1]; first compound 8 µM", "value": 0.242}, {"measurement": "relative viability", "setting": "[2]; first compound 0.08 µM", "value": 0.374}, {"measurement": "relative viability", "setting": "[2]; first compound 0.253 µM", "value": 0.382}, {"measurement": "relative viability", "setting": "[2]; first compound 0.8 µM", "value": 0.342}, {"measurement": "relative viability", "setting": "[2]; first compound 2.53 µM", "value": 0.373}, {"measurement": "relative viability", "setting": "[2]; first compound 8 µM", "value": 0.331}, {"measurement": "relative viability", "setting": "[3]; first compound 0.253 µM", "value": 0.501}, {"measurement": "relative viability", "setting": "[3]; first compound 0.8 µM", "value": 0.553}, {"measurement": "relative viability", "setting": "[3]; first compound 8 µM", "value": 0.54}, {"measurement": "relative viability", "setting": "[4]; first compound 0.08 µM", "value": 0.593}, {"measurement": "relative viability", "setting": "[4]; first compound 0.253 µM", "value": 0.61}, {"measurement": "relative viability", "setting": "[4]; first compound 0.8 µM", "value": 0.467}, {"measurement": "relative viability", "setting": "[4]; first compound 2.53 µM", "value": 0.586}, {"measurement": "relative viability", "setting": "[4]; first compound 8 µM", "value": 0.577}, {"measurement": "relative viability", "setting": "[5]; first compound 0.08 µM", "value": 0.274}, {"measurement": "relative viability", "setting": "[5]; first compound 0.253 µM", "value": 0.314}, {"measurement": "relative viability", "setting": "[5]; first compound 0.8 µM", "value": 0.297}, {"measurement": "relative viability", "setting": "[5]; first compound 2.53 µM", "value": 0.264}, {"measurement": "relative viability", "setting": "[5]; first compound 8 µM", "value": 0.293}, {"measurement": "relative viability", "setting": "[6]; first compound 0.08 µM", "value": 0.661}, {"measurement": "relative viability", "setting": "[6]; first compound 0.253 µM", "value": 0.73}, {"measurement": "relative viability", "setting": "[6]; first compound 0.8 µM", "value": 0.742}, {"measurement": "relative viability", "setting": "[6]; first compound 2.53 µM", "value": 0.634}, {"measurement": "relative viability", "setting": "[6]; first compound 8 µM", "value": 0.749}, {"measurement": "relative viability", "setting": "[7]; first compound 0.08 µM", "value": 0.833}, {"measurement": "relative viability", "setting": "[7]; first compound 0.253 µM", "value": 0.951}, {"measurement": "relative viability", "setting": "[7]; first compound 0.8 µM", "value": 0.989}, {"measurement": "relative viability", "setting": "[7]; first compound 2.53 µM", "value": 0.997}, {"measurement": "relative viability", "setting": "[7]; first compound 8 µM", "value": 0.996}, {"measurement": "relative viability", "setting": "[8]; first compound 0.08 µM", "value": 0.599}, {"measurement": "relative viability", "setting": "[8]; first compound 0.253 µM", "value": 0.567}, {"measurement": "relative viability", "setting": "[8]; first compound 0.8 µM", "value": 0.585}, {"measurement": "relative viability", "setting": "[8]; first compound 2.53 µM", "value": 0.613}, {"measurement": "relative viability", "setting": "[8]; first compound 8 µM", "value": 0.712}]}]}
